Activity calls are given as the source filed them.
Tests used:
Streptokinase A = biological target: T1, Streptokinase A (Streptococcus pyogenes serotype M1, UniProt P10520); assay: viability-normalized secreted streptokinase activity reduction – plasminogen activation absorbance, OD405, dose response (AID 1914); type: functional, Streptococcus pyogenes M1 GAS;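 also: secreted streptokinase activity via plasminogen activation per viability signal from cell pellet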
T1 sequence (P10520 whole entry): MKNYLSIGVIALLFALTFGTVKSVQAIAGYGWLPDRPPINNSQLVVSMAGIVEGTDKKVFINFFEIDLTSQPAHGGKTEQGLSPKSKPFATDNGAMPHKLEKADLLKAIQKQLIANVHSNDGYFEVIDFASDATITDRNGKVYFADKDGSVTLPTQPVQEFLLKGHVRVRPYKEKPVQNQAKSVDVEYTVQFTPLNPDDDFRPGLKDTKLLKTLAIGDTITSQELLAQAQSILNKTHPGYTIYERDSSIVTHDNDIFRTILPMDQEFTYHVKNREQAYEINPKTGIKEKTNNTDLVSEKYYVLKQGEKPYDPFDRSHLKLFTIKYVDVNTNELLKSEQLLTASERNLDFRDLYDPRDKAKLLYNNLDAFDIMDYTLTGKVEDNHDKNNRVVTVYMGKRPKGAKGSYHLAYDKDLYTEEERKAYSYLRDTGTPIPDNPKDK

Streptococcus = assay: GAS UMAA2166 growth inhibition – luminescence, BacTiterGlo, counter-screen for streptokinase expression inhibitor project, dose response (AID 1915); type: functional, organism-based;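 also: potency for reduction of bacterial viability or growth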
[1] = biological target: T2, Orexin/Hypocretin receptor type 1 (Homo sapiens, UniProt O43613); assay: Homogeneous Time Resolved Fluorescence (HTRF)-based cell-based high throughput dose response assay for antagonists of the orexin 1 receptor (OX1R; HCRTR1). [Related pubchem assays (depositor defined):AID434989, AID435008, AID463079, AID485270, AID492963, AID492964, AID492965, AID493232, AID504717, AID504718]; type: functional
T2 sequence (O43613 whole entry): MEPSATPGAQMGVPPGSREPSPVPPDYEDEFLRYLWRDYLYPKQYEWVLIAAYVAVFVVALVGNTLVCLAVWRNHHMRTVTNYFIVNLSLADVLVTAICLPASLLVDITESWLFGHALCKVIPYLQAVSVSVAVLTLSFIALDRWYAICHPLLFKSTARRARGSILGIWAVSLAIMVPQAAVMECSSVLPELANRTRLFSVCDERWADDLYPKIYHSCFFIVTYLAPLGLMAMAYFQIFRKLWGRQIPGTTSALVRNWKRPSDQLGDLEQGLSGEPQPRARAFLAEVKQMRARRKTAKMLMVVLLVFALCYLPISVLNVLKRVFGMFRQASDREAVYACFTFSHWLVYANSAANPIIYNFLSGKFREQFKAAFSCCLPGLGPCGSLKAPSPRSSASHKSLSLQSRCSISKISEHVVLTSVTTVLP

Orexin receptor type 2 [2] = biological target: T3, Orexin receptor type 2 (Homo sapiens, UniProt O43614); assay: Counterscreen assay for antagonists of the orexin 1 receptor (OX1R; HCRTR1): Homogeneous Time Resolved Fluorescence (HTRF)-based cell-based dose response assay for antagonists of the orexin 2 receptor (OX2R; HCRTR2), run by assay provider.; type: functional
T3 sequence (O43614 whole entry): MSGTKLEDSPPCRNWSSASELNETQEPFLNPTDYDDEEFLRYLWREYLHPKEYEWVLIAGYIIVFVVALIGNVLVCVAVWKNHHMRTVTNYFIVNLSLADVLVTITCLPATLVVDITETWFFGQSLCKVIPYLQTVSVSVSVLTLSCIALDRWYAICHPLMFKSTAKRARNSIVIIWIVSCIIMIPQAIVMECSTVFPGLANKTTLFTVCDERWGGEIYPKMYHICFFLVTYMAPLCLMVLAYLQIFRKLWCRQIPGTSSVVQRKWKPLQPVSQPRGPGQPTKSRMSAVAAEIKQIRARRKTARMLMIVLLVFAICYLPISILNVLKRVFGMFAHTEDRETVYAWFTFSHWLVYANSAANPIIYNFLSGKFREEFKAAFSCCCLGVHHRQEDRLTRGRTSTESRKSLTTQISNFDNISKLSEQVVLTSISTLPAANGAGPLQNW

[3] = viability loss of HMLE_sh_eGFP cells – cell-based, luminescence, counter-screen for HMLE_sh_ECad selective toxicity project, dose response (AID 463074); type: functional, Homo sapiens;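 also: HMLE human mammary epithelial cells expressing control shRNA against eGFP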
[4] = biological target: T2, Orexin/Hypocretin receptor type 1; assay: Fluorescence-based cell-based high throughput dose response assay for antagonists of the orexin 1 receptor (OX1R; HCRTR1). [Related pubchem assays (depositor defined):AID434989, AID435008, AID463079, AID485270, AID492963, AID492964, AID492965, AID493232, AID504717, AID504718]; type: functional
[5] = test system: Streptococcus sp. 'group A'; assay: Streptococcus pyogenes SK(-)GAS viability under kanamycin – luminescence, BacTiterGlo, confirmation, counter-screen for streptokinase expression inhibitor project, dose response (AID 1900); type: functional, organism-based
[6] = Luminescence Cell-Based Dose Retest to Confirm Inhibitors of Cancer Stem Cells. [Related pubchem assays (depositor defined):AID2717, AID2721]; type: functional; conditions: Homo sapiens
[7] = (§1) Counterscreen for antagonists of the orexin 1 receptor (OX1R; HCRTR1): Fluorescence-based cell-based high throughput dose response assay to identify antagonists of the parental CHO cell line. [Related pubchem assays (depositor defined):AID434989, AID435008, AID463079, AID485270, AID492963, AID492964, AID492965, AID493232, AID504699, AID504701]; type: functional
Orexin receptor type 2 [8] = biological target: T3, Orexin receptor type 2; assay: Counterscreen assay for antagonists of the orexin 1 receptor (OX1R; HCRTR1): Fluorescence-based cell-based dose response assay for antagonists of the orexin 2 receptor (OX2R; HCRTR2), run by assay provider.; type: functional
CHO-K1 = assay: as §1, with “Homogeneous time resolved fluorescence (HTRF)-based” for “Fluorescence-based”, “cell-based” for “cell-based high throughput”, “CHO-K1” for “CHO”; type: functional; conditions: Cricetulus griseus;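 also: potency for inhibition of ATP-stimulated IP1 production as antagonists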
Jurkat = assay: SAR Analysis of small molecule inhibitors of T-cell specific antigen receptor-induced NF-kB activation in a Jurkat cell line using a luminescence assay - Set 2. [Related pubchem assays (depositor defined):AID435003, AID435012, AID465]; type: functional, cell-based; conditions: Homo sapiens
HEK293 [9] = assay: SAR Analysis of small molecule inhibitors of T-cell specific antigen receptor-induced NF-kB activation in a HEK-293T cell line using a luminescence assay - Set 2. [Related pubchem assays (depositor defined):AID435003, AID435012, AID489026]; type: functional, cell-based; conditions: Homo sapiens
HEK293 [10] = assay: HEK293T cell viability loss, resazurin readout – resazurin fluorescence, cytotoxicity control for NF-kB activator project, SAR follow-up (AID 493251); type: functional, cell-based; conditions: Homo sapiens
Phospholipase D1 = Phospholipase D1 (Homo sapiens, UniProt Q13393); assay: PLD1 purified enzyme concentration response. [Related pubchem assays (depositor defined):AID588854]; type: functional
Sequence of Phospholipase D1 (Q13393 whole entry): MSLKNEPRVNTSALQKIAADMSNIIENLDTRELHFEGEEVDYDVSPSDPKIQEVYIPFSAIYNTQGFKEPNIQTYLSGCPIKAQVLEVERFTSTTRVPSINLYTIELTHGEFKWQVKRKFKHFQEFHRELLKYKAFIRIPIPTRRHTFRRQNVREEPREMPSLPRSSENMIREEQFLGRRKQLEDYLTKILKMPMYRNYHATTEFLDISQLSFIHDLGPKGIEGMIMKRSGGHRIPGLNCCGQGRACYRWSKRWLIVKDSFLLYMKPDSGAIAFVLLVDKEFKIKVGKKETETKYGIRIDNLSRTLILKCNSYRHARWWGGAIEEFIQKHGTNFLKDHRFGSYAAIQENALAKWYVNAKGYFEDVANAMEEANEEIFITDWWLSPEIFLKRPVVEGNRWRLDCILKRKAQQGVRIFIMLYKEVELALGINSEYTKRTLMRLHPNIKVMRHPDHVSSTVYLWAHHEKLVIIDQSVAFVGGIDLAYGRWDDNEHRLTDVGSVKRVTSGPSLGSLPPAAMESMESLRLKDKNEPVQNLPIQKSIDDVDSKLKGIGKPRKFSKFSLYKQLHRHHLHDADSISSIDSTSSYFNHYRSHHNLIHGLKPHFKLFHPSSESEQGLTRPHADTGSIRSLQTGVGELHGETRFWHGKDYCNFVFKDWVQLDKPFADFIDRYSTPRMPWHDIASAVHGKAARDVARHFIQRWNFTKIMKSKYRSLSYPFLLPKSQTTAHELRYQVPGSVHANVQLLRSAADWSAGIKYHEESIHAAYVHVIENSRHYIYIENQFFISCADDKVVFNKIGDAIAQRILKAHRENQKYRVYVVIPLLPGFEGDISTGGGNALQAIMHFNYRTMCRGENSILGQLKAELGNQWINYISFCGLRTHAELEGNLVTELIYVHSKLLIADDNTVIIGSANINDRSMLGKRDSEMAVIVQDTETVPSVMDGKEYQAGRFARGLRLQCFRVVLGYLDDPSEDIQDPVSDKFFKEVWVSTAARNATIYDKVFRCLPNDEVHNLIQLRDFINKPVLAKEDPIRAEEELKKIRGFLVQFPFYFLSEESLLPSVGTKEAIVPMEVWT

Phospholipase D2 = Phospholipase D2 (Homo sapiens, UniProt O14939); assay: PLD2 purified enzyme concentration response. [Related pubchem assays (depositor defined):AID588854]; type: functional
Sequence of Phospholipase D2 (O14939 whole entry): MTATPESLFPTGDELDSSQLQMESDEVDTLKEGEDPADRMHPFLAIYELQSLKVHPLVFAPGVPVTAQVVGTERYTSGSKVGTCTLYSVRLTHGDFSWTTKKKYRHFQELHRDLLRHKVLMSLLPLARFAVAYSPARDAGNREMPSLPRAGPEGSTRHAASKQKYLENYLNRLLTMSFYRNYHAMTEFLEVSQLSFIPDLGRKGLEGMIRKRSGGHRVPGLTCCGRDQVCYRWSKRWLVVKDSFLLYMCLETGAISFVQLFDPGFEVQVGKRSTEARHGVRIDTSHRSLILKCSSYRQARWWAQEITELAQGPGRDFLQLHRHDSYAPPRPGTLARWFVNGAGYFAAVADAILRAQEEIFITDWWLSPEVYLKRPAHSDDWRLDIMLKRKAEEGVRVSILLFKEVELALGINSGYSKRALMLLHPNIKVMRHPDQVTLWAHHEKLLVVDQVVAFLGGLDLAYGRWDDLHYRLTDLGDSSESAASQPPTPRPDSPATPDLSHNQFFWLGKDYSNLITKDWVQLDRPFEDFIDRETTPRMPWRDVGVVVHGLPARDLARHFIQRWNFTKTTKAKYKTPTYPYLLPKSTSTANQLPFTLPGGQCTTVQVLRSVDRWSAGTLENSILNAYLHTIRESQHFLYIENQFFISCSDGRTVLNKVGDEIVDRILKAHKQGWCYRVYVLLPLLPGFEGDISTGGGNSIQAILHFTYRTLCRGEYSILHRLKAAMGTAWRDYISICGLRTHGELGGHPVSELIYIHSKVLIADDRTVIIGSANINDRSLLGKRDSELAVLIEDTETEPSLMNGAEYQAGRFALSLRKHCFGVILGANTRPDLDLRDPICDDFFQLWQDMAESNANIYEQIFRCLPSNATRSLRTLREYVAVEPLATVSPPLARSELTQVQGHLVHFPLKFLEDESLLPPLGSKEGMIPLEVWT

[11] = biological target: Dual specificity protein kinase CLK1 (Homo sapiens, UniProt P49759); assay: inhibition of human CLK1 activity – biochemical, cherry-picked samples, selectivity assay for Dyrk1A inhibitor project, dose response (AID 588811)
Sequence of Dual specificity protein kinase CLK1 (P49759 whole entry): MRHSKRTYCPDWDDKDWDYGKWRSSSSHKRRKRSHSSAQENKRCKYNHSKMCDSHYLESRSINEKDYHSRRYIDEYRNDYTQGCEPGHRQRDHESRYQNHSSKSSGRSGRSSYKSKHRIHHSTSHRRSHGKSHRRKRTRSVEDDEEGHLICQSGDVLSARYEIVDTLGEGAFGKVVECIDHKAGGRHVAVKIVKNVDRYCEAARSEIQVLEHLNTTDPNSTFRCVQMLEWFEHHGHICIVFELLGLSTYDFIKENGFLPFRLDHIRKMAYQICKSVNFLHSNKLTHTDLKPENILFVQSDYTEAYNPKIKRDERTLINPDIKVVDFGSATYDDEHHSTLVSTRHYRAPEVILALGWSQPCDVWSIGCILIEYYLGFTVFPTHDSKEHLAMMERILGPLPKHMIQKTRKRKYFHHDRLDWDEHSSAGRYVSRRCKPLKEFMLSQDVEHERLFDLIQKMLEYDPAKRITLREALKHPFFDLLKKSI

In the case of O=c1c2ccccc2oc2cc(-c3ccc4[nH]ccc4c3)ccc12, the EC50 (Streptokinase A) is reported as > 150 µM (not active), the EC50 (Streptococcus) is reported as > 150 µM (not active) and the IC50 [1] is reported as 2.71 µM (active). The IC50 (Orexin receptor type 2 [2]) was > 50 µM (inactive), the AC50 [3] was 0.29 µM (inconclusive) and the IC50 [4] was 6.96 µM (active). For the same compound, the EC50 [5] was 8.57 µM (active), the AC50 [6] was 0.255 µM (active) and the IC50 [7] was 48.8 µM (inactive). For the same compound, the IC50 (Orexin receptor type 2 [8]) was 40 µM (inactive) and the IC50 (CHO-K1) was > 66.3 µM (inactive).

In the case of Cc1ccc(C(NC(=O)C(C)C)c2ccc3cccnc3c2O)cc1 (configuration not stated), the IC50 (Jurkat) is reported as 3.26 µM (active), the IC50 (HEK293 [9]) is reported as 6.33 µM (active) and the IC50 (HEK293 [10]) is reported as 8.28 µM (active).

In the case of O=C(NCCN1CCC2(CC1)C(=O)NCN2c1ccc(Br)cc1)c1cnc2ccccc2c1, the IC50 (Phospholipase D1) is reported as 3.04 µM (active) and the IC50 (Phospholipase D2) is reported as 0.13 µM (active).

For Clc1cc(Cl)cc(CNc2ncncc2-c2ccc3c(c2)OCO3)c1, the AC50 [11] was 0.0305 µM (active).

— ChEMBL document CHEMBL1201862, “PubChem BioAssay data set” (2004)
